Experimental findings from ChEMBL document CHEMBL4823312, “Virtual screening and biological evaluation of PPARγ antagonists as potential anti-prostate cancer agents” (Bioorg Med Chem, 2021) are described below.

What is called IC50 is the midpoint of a concentration-inhibition curve.

SMILES strings stand for the structures.

The target in this assay is T1, Peroxisome proliferator-activated receptor gamma (Homo sapiens, UniProt P37231).
T1 sequence (P37231 whole entry): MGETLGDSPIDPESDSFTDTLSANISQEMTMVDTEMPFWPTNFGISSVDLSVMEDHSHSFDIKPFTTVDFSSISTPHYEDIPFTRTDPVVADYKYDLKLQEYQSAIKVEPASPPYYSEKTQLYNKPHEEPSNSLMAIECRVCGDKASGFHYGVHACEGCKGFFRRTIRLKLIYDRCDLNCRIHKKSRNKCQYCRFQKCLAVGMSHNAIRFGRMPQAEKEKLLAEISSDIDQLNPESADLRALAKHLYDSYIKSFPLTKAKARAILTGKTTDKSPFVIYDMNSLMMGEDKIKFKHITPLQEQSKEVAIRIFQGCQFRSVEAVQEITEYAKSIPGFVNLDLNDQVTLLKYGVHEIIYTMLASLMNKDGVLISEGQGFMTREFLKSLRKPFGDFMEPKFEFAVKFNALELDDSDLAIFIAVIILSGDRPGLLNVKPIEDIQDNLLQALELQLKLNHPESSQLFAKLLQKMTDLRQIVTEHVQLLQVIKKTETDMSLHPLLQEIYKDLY
Put plainly: Antagonist activity at PPARgamma (unknown origin) expressed in human LNCaP cells assessed as suppression of pioglitazone-induced PPAR response element driven firefly luciferase activity measured after 24 hrs by dual luciferase reporter assay. It is filed as cell-based. For orientation: A reporter such as luciferase makes a cellular process visible.
Take `COc1cc(OC)c2c(=O)cc(-c3cccnc3)oc2c1`: the IC50 stood at 1100 nM.
Then `CC(=O)c1cc(C(C)=O)c(CC(=O)C(=O)Nc2cccc(C)c2C)cc1CC(=O)C(=O)Nc1cccc(C)c1C`, with 2600 nM; and `COc1ccc(O)c(/C=N/c2ccccc2NS(=O)(=O)c2ccc(C)cc2)c1`, with 2300 nM; and `O=C(CCCOc1ccc(Cl)cc1Cl)N[C@@H](Cc1c[nH]c2ccccc12)C(=O)O`, with 2400 nM.
Then `CCN(CC)c1ccc(CN(CC(=O)c2ccc(Cl)c(Cl)c2)Cc2ccccc2)cc1`, with 4500 nM.
Then `CC(/C=N/Nc1ccc(S(=O)(=O)/N=C/C(C)=C/c2ccccc2)cc1)=C\c1ccccc1`, with 2300 nM; and `O=C(O)c1ccccc1-c1ccccc1C(=O)Nc1ccc2c(c1)-c1ccccc1C2`, with 3500 nM.
As for `O=S(=O)(NCCSSCCNS(=O)(=O)c1cccc2cccnc12)c1cccc2cccnc12`, the IC50 was 1500 nM.
Then `O=C(OCc1cccc2ccc3cccc(COC(=O)c4ccccc4)c3c12)c1ccccc1`, with 5400 nM; and `O=C(Nc1ccccc1C(=O)N/N=C/c1c(O)ccc2ccccc12)c1ccccc1Cl`, with 1700 nM; and `O=C1C=C(Nc2ccccc2C(=O)CC(=O)C(=O)Nc2ccc(Cl)c(Cl)c2)c2ccccc2C1=O`, with 2800 nM.
Then `COc1ccc(NC(=O)CC[C@H](NS(=O)(=O)c2ccc(C)cc2)C(=O)O)cc1`, with 275000 nM; and `O=C(CNC(=O)Nc1ccc(NC(=O)NCC(=O)Nc2ccc(C3=NCCN3)cc2)cc1)Nc1ccc(C2=NCCN2)cc1`, with 1600 nM.
Then `COc1c(OC)c(O)c2c(=O)cc(-c3ccc(O)cc3)oc2c1OC` [XANTHOMICROL], with 5400 nM; and `O=C(CCCC(=O)N/N=C/c1cccc2ccccc12)N/N=C/c1ccc2ccccc2c1`, with 2100 nM.
